Tested on: C2C12 cells
Assay: Western blot of UPRmt, prohibitins and cell cycle proteins in TAP-treated C2C12 cells
Assay type: cell-based, mouse
Settings: 50 μg/ml TAP, FIG. 7
Protocol: Western blotting. C2C12 cells were lysed in a buffer composed of 50 mM Tris, 150 mM KCl, EDTA 1 mM, NP40 1%, nicotinamide 5 mM, sodium butyrate 1 mM and protease inhibitors cocktail (Roche) at pH 7,4. Proteins were separated by SDS-PAGE and transferred onto nitrocellulose membranes. Blocking and antibody incubations were performed in 3% BSA. The following primary antibodies were used: anti-cleavage caspase 3 (Cell Signalling); Anti-γH2AX (Millipore); anti-β-actin (Sigma). All secondary antibodies were from Jackson Immunoresearch. Antibody detection reactions were developed by enhanced chemiluminescence (Advansta, Calif., USA) using x-ray films or imaged using the c300 imaging system (Azure Biosystems). The following primary antibodies were used: anti-HSP60 (Enzo Life Science); anti-PHB (Biolegend); anti-PHB2 (Santa Cruz); anti-CKD4 (Novus biologicals); anti-CCND1 (Santa Cruz); anti-CCND3 (Santa Cruz); anti-HSP90 (BD Biosciences); HSP70 (Abcam); anti-MT-CO1 (Bio legend); anti-ATP5A (Bio legend); anti-Grp78 (Abcam); and anti-CLPP (Sigma).

CS(=O)(=O)c1ccc([C@@H](O)[C@@H](CO)NC(=O)C(Cl)Cl)cc1 [thiamphenicol]
UPRmt induction: UPR^mt induction
cell cycle gene expression: induced
prohibitins expression: induced
